The values that follow come from EP4553077A1 (Kinoteck Therapeutics Co., Ltd, priority 2022, dated 2024).

This assay deals with Ba/F3-TEL-FGFR2 (Homo sapiens, UniProt P21802+P41212). The assay can be described thus: Cell viability (proliferation inhibition) of Ba/F3 cells, CellTiter Glo. The note with it: read-out: Ba/F3 cell FGFR2 (IC50 nM), 72 h. On the technique in general: ATP-based viability assays read luminescence as a measure of living cells.
Ba/F3-TEL-FGFR2, sequence (P21802 481-770 limits assumed, one chain of several): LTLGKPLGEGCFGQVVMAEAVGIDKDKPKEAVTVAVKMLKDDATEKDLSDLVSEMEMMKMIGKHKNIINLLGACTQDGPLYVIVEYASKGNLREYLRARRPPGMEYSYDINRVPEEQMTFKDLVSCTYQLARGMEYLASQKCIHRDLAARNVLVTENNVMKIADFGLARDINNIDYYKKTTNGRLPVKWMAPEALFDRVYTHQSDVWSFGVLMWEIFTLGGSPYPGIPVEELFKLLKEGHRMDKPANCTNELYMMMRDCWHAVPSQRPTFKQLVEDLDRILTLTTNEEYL

For `C=C(C)C(=O)Nc1ccc(-c2c(-c3ccc(N=S(=O)(N4CCCC4)C(F)(F)F)c(F)c3)c3c(N)ncnc3n2C)cc1` (stereo not shown) [Compound 47, N-(4-(4-amino-5-(3-fluoro-4-((oxo (pyrrolidine-1-yl) (trifluoromethyl) - λ^6-sulfanylidene)amino)phenyl) -7-methyl-7H-pyrrolo [2,3-d]pyrimidin-6-yl)phenyl) methacrylamide], the IC50 was determined as 2.7 nM. As for `C=C(C)C(=O)Nc1ccc(-c2c(-c3ccc(N=S(C)(=O)C4CCC4)cc3)c3c(N)ncnc3n2C)c(F)c1` (stereo not shown) [Compound 50, N-(4-(4-amino-5-(4-((cyclobutyl (methyl) (oxo) - λ^6-sulfanylidene)amino)phenyl) -7-methyl-7H-pyrrole [2,3-d]pyrimidin-6-yl) -3-fluorophenyl) methacrylamide], the figure is 7.6 nM. As for `C=C(C)C(=O)Nc1ccc(-c2c(-c3ccc(N=S(=O)(N4CCC4)C(F)(F)F)cc3)c3c(N)ncnc3n2C)cc1` (stereo not shown) [Compound 51, N-(4-(4-amino-5-(4-((azetidin-1-yl(oxo)(trifluoromethyl)-λ^6-sulfanylidene)amino)phenyl) -7-methyl-7H-pyrrolo [2,3-d]pyrimidin-6-yl)phenyl) methacrylamide], the figure is 19.1 nM.

For `C=C(C)C(=O)Nc1ccc(-c2c(-c3ccc(N=S(=O)(N(C)C)C(F)(F)F)cc3F)c3c(N)ncnc3n2C)cc1` (stereo not shown) [Compound 52, N-(4-(4-amino-5-(4-(((dimethylamino) (oxo) (trifluoromethyl) -λ^6-sulfanylidene)amino) -2-fluorophenyl) -7-methyl-7H-pyrrolo [2,3-d]pyrimidin-6-yl)phenyl) methacrylamide], the IC50 is 2.3 nM. As to `C=C(C)C(=O)Nc1ccc(-c2c(-c3ccc(N=S(=O)(N(C)CC)C(F)(F)F)c(F)c3)c3c(N)ncnc3n2C)cc1` (stereo not shown) [Compound 53, N-(4-(4-amino-5-(4-(((ethyl(methyl)amino)(oxo)(trifluoromethyl)-λ^6-sulfanylidene)amino)-3-fluorophenyl)-7-methyl-7H-pyrrolo[2,3-d]pyrimidin-6-yl)phenyl) methacrylamide], the IC50 amounted to 10.2 nM. As for `C=C(C)C(=O)Nc1ccc(-c2c(-c3ccc(N=S(=O)(N(C)CC)C(F)(F)F)cc3)c3c(N)ncnc3n2C)cc1` (stereo not shown) [Compound 54, N-(4-(4-amino-5-(4-(((ethyl (methyl)amino) (oxo) (trifluoromethyl) -λ^6-sulfanylidene)amino)phenyl) -7-methyl-7H-pyrrolo [2,3-d]pyrimidin-6-yl)phenyl) methacrylamide], the IC50 came out at 2.8 nM.

Consider `C=C(C)C(=O)Nc1ccc(-c2c(-c3ccc(N=S(=O)(N4CCC4)C(F)(F)F)c(F)c3)c3c(N)ncnc3n2C)cc1` (stereo not shown) [Compound 55, N-(4-(4-amino-5-(4-((azetidine 1-yl (oxo) (trifluoromethyl) -λ^6-sulfanylidene)amino)-3-fluorophenyl)-7-methyl-7H-pyrrolo[2,3-d]pyrimidin-6-yl)phenyl) methacrylamide], for which the IC50 is 3 nM.

Regarding `C=C(C)C(=O)Nc1ccc(-c2c(-c3ccc(N=S4(=O)CC(C)(C)C4)c(F)c3)c3c(N)ncnc3n2C)cc1` [Compound 57, N-(4-(4-amino-5-(4-((3,3-dimethyl-1-oxo-1λ^6-thiocyclobutyl-1-ylidene)amino) -3-fluorophenyl) -7-methyl-7H-pyrrolo [2,3-d]pyrimidin-6-yl)phenyl) methacrylamide], the IC50 came out at 17.4 nM. For `CC#CC(=O)Nc1ccc(-c2c(-c3ccc(N=S4(=O)CCCC4)cc3)c3c(N)ncnc3n2C)cc1` [Compound 60, N-(4-(4-amino-7-methyl-5-(4-((1-oxotetrahydro-1 λ^6-thiophene-1-ylidene)amino)phenyl) -7H-pyrrolo [2,3-d]pyrimidin-6-yl)phenyl) but-2-ynamide], the IC50 came to 13.1 nM.

Consider `C=C(C)C(=O)Nc1ccc(-c2c(-c3ccc(N=S4(=O)CCCC4)cc3F)c3c(N)ncnc3n2C)c(F)c1` [Compound 61, N-(4-(4-amino-5-(2-fluoro-4-((1-oxotetrahydro-1λ^6-thiophene-1-ylidene)amino)phenyl)-7-methyl-7H-pyrrolo[2,3-d]pyrimidin-6-yl)-3-fluorophenyl) methacrylamide], for which the IC50 turned out to be 150 nM. Then `C=C(C)C(=O)Nc1ccc(-c2c(C3=CCC(=S(=O)(CC)C(C)C)C=C3)c3c(N)ncnc3n2C)cc1` (stereo not shown) [Compound 62, N-(4-(4-amino-5-(4-(ethyl(isopropyl)(oxo)-1λ^6-sulfanylidene)phenyl) -7-methyl-7H-pyrrolo[2,3-d]pyrimidin-6-yl)-phenyl)methacrylamide], with 9.2 nM; and `C=C(C)C(=O)Nc1ccc(-c2c(-c3ccc(N=S4(=O)CCCCC4)cc3)c3c(N)ncc(C#N)c3n2C)c(F)c1` [Compound 64, N-(4-(4-amino-7-cyano-1-methyl-3-(4-((1-oxotetrahydro-2H-1λ^6-thiopyran-1-ylidene)amino)phenyl) -1H pyrrolo [3,2-c]pyridine-2-yl) -3-fluorophenyl) methacrylamide], with 658 nM. `C=C(F)C(=O)N1CC=C(c2c(-c3ccc(N=S4(=O)CCCCC4)cc3)c3c(N)ncnc3n2C)CC1` [Compound 65, 1-(4-(4-amino-7-methyl-5-(4-((1-oxotetrahydro-2H-1 λ^6-thiopyran-1-ylidene)amino)phenyl)-7H-pyrrolo[2,3-d]pyrimidin-6-yl)-3,6-dihydropyridine-1(2H)-yl) -2-fluoropropan-2-enyl-1-one]: the IC50 came out at 121 nM. As for `CC#CC(=O)N1CC=C(c2c(-c3ccc(N=S4(=O)CCCCC4)cc3)c3c(N)ncnc3n2C)CC1` [Compound 66], the figure is 27.8 nM; as for `CN(C)C/C=C/C(=O)N1CC=C(c2c(-c3ccc(N=S4(=O)CCCCC4)cc3)c3c(N)ncnc3n2C)CC1` [Compound 67, (E)-1-(4-(4-amino-7-methyl-5-(4-((1-oxotetrahydro-2H-1λ^6-thiopyran-1-ylidene)amino)phenyl) -7H-pyrrolo [2,3-d]pyrimidin-6-yl) -3,6-dihydropyridine-1 (2H)-yl) -4-(dimethylamino) but-2-enyl-1-one], 105 nM. Then `C=C(C)C(=O)Nc1ccc(-c2c(-c3ccc(N=S4(=O)CCCCC4)c(F)c3)c3c(N)ncnc3n2C)cc1` [Compound 69, N-(4-(4-amino-5-(3-fluoro-4-((1-oxotetrahydro-2H-1λ^6-thiopyran-1-ylidene)amino)phenyl) -7-methyl-7H-pyrrolo [2,3-d]pyrimidin-6-yl)phenyl) methacrylamide], with 11.4 nM; and `C=C(C)C(=O)Nc1ccc(-c2c(-c3ccc(N=S(=O)(NCC)C(F)(F)F)c(F)c3)c3c(N)ncnc3n2C)cc1` (stereo not shown) [Compound 71, N-(4-(4-amino-5-(4-(((ethylamino)(oxo)(trifluoromethyl)-1 λ^6-sulfaneylidene)amino)-3-fluorophenyl)-7-methyl-7H-pyrrolo[2,3-d]pyrimidin-6-yl)phenyl) methacrylamide], with 2.5 nM.

Consider `C=C(C)C(=O)Nc1ccc(-c2c(-c3ccc(N=S4(=O)CC5(CC5)C4)cc3)c3c(N)ncnc3n2C)c(F)c1` [Compound 72], for which the IC50 stood at 2.2 nM. As for `C=C(C)C(=O)Nc1ccc(-c2c(-c3ccc(N=S(=O)(CC)CC)cc3)c3c(N)ncnc3n2C)c(C(F)F)c1` [Compound 73], the figure is 11.1 nM; as for `C=C(C)C(=O)Nc1ccc(-c2c(-c3cc(F)c(N=S(=O)(CC)CC)cc3F)c3c(N)ncnc3n2C)c(F)c1` [Compound 76], 6.1 nM; as for `C=C(C)C(=O)Nc1ccc(-c2c(-c3ccc(N=S4(=O)CCCC4)cc3)c3c(N)ncnc3n2CCN(C)C)c(F)c1` [Compound 78, N-(4-(4-amino-7-(2-(dimethylamino)ethyl) -5-(4-((1-hydroperoxide-1λ^6-thiophene-1-ylidene)amino)phenyl) -7H-pyrrolo [2,3-d]pyrimidin-6-yl) -3-fluorophenyl) methacrylamide], 585 nM.

Turning to `C=C(C)C(=O)Nc1ccc(-c2c(-c3ccc(N=S4(=O)CCCC4)cc3)c3c(N)ncnc3n2CC(C)(C)O)c(F)c1` [Compound 79, N-(4-(4-amino-7-(2-hydroxy-2-methylpropyl)-5-(4-((1-hydroperoxid-1λ^6-thiophene-1-ylidene)amino)phenyl) -7H-pyrrolo [2,3-d]pyrimidin-6-yl) -3-fluorophenyl) methacrylamide], the IC50 turned out to be 61.1 nM.

For `C=C(C)C(=O)Nc1ccc(-c2c(-c3ccc(N=S4(=O)CCCC4)c(OC)c3)c3c(N)ncnc3n2C)c(F)c1` [Compound 80, N-(4-(4-amino-5-(3-methoxy-4-((1-hydroperoxid-1λ^6-thiophene-1-ylidene)amino)phenyl)-7-methyl-7H-pyrrolo[2,3-d]pyrimidin-6-yl)-3-fluorophenyl) methacrylamide], the IC50 was 46 nM. Then `C=C(C)C(=O)Nc1ccc(-c2c(-c3ccc(N=S4(=O)CCCC4)c(OC)c3)c3c(N)ncnc3n2C)c(Cl)c1` [Compound 81, N-(4-(4-amino-5-(3-methoxy-4-((1-hydroperoxid-1 λ^6-thiophene-1-ylidene)amino)phenyl) -7-methyl-7H-pyrrolo [2,3-d]pyrimidin-6-yl) -3-chlorophenyl) methacrylamide], with 18.1 nM; and `C=C(C)C(=O)Nc1ccc(-c2c(-c3ccc(N=S(=O)(CC)CC)cc3F)c3c(N)ncnc3n2C)c(F)c1` [Compound 85], with 907 nM; and `C=C(C)C(=O)Nc1ccc(-c2c(-c3ccc(N=S(=O)(CC)CC)cc3)c3c(N)ncnc3n2CCOC)c(F)c1` [Compound 86], with 67.4 nM.

Regarding `[2H]C([2H])([2H])n1c(-c2cc(C)c(NC(=O)C(=C)C)cc2F)c(-c2ccc(N=S3(=O)CCCC3)c(F)c2)c2c(N)ncnc21` [Compound 91, N-(4-(4-amino-5-(3-fluoro-4-((1-tetrahydro-1λ^6-thiophene-1-ylidene)amino)phenyl) -7-(methyl-d3) -7H-pyrrolo [2,3-d]pyrimidin-6-yl) -5-fluoro-2-methylphenyl) methacrylamide], the IC50 turned out to be 23.9 nM. With `C=C(CN(C)C)C(=O)Nc1ccc(-c2c(-c3ccc(N=S4(=O)CCCC4)c(F)c3)c3c(N)ncnc3n2C)cc1` [Compound 92], the IC50 is 0.8 nM.
